Literature values, collected in patent publication US11103587B2, “Multiple oligonucleotide moieties on peptide carrier” (Genzyme Corporation, priority 2014, dated 2021).

Key:
[1] = test system: exon 23 of the mRNA encoding for dystrophin; details: mdx mouse, cited from earlier work
[2] = mice; cited from earlier work

GGCCAAACCTCGGCTTACCTGAAAT (PMO backbone, chemistry not fully specified) [PMO23, PMO designed to skip exon 23 of the mRNA encoding for dystrophin]
skipping of exon 23 in cardiac muscle ([1]; cardiac muscle): does not effect exon 23 skipping in cardiac muscle | skipping of exon 23 in skeletal muscle ([1]; skeletal muscle): < 15% | amount administered without any noticeable toxic effects [2]: ≤ 250 mg/kg
